Measurements: ChEMBL document CHEMBL1201862, “PubChem BioAssay data set” (2004)
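A five-concentration, 48-hour dose response in 96-well plates underlies each endpoint, interpolated linearly between surrounding concentrations. Here, GI50 denotes the concentration required for 50% inhibition of growth.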 The source made the active and inactive calls. Rule as the data show it: active = GI50 up to about 1.1 µM and inactive = higher.

Key:
Experiment in all cases: inhibition of tumour cell growth, NCI panel, 48 h
UACC-62 = system: UACC-62
HL-60 = system: HL-60
SR = system: SR
TK-10 = system: TK-10
LOX IMVI = system: LOX IMVI
MDA-MB-231 = system: MDA-MB-231
SNB-19 = system: SNB-19
CCRF-CEM = system: CCRF-CEM
UACC-257 = system: UACC-257
SF-539 = system: SF-539
SK-MEL-2 = system: SK-MEL-2
NCI/ADR-RES = system: NCI/ADR-RES
HOP-62 = system: HOP-62
MDA-N = system: MDA-N
Hs-578T = system: Hs-578T
KM12 = system: KM12
U-251 = system: U-251
MOLT-4 = system: MOLT-4
HT-29 = system: HT-29
EKVX = system: EKVX

SMILES | GI50 (UACC-62) | GI50 (HL-60) | GI50 (SR) | GI50 (TK-10) | GI50 (LOX IMVI) | GI50 (MDA-MB-231) | GI50 (SNB-19) | GI50 (CCRF-CEM) | GI50 (UACC-257) | GI50 (SF-539) | GI50 (SK-MEL-2) | GI50 (NCI/ADR-RES) | GI50 (HOP-62) | GI50 (MDA-N) | GI50 (Hs-578T) | GI50 (KM12) | GI50 (U-251) | GI50 (MOLT-4) | GI50 (HT-29) | GI50 (EKVX)
COc1cc(C2c3cc4c(cc3OC(NNC(N)=S)C2C)OCO4)cc(OC)c1OC (stereo not given) | 0.318 µM (active) | 0.165 µM (active) | 0.0811 µM (active) | 5.12 µM (inactive) | 0.412 µM (active) | 0.4 µM (active) | 0.471 µM (active) | 0.244 µM (active) | 1.93 µM (inactive) | 0.199 µM (active) | 25.6 µM (inactive) | 0.585 µM (active) | 0.344 µM (active) | 0.084 µM (active) | 0.406 µM (active) | 0.343 µM (active) | 0.362 µM (active) | 0.374 µM (active) | 0.269 µM (active) | 22.5 µM (inactive)
CN1CCOC1(C)c1ccccc1 (stereo not given) | > 100 µM (inactive) | > 100 µM (inactive) | > 100 µM (inactive) | > 100 µM (inactive) | > 100 µM (inactive) | > 100 µM (inactive) | > 100 µM (inactive) | > 100 µM (inactive) | > 100 µM (inactive) | > 100 µM (inactive) | > 100 µM (inactive) | > 100 µM (inactive) | > 100 µM (inactive) | > 100 µM (inactive) | > 100 µM (inactive) | > 100 µM (inactive) | > 100 µM (inactive) | > 100 µM (inactive) | > 100 µM (inactive) | > 100 µM (inactive)
CCn1c(=N)sc2nc3ccccc3n2c1=O | > 100 µM (inactive) | > 100 µM (inactive) | > 100 µM (inactive) | > 100 µM (inactive) | > 100 µM (inactive) | > 100 µM (inactive) | > 100 µM (inactive) | 90.8 µM (inactive) | > 100 µM (inactive) | > 100 µM (inactive) | > 100 µM (inactive) | > 100 µM (inactive) | > 100 µM (inactive) | > 100 µM (inactive) | > 100 µM (inactive) | > 100 µM (inactive) | > 100 µM (inactive) | > 100 µM (inactive) | > 100 µM (inactive) | > 100 µM (inactive)
Cc1cc(=O)n2nc(CCl)sc2n1 | 14.4 µM (inactive) | 17.3 µM (inactive) | 13.1 µM (inactive) | 10.2 µM (inactive) | 4.19 µM (inactive) | 20.7 µM (inactive) | 15.8 µM (inactive) | 6.62 µM (inactive) | 10.2 µM (inactive) | 18.7 µM (inactive) | 10.5 µM (inactive) | 20.7 µM (inactive) | 18.1 µM (inactive) | 14 µM (inactive) | 17 µM (inactive) | 12.1 µM (inactive) | 5.13 µM (inactive) | 11.8 µM (inactive) | 14.8 µM (inactive) | 17.4 µM (inactive)
